{"source": "patent US20080226596A1", "about": "“Therapeutic compositions and methods useful in treating hepatitis” (priority 2006, published 2008)", "key": {"[1]": {"test_system": "NB4 cells", "test": "NB4 cell cycle analysis", "assay_type": "cell-based, human", "conditions": "3 days; sodium stibogluconate 250 μg/ml, ATRA 1 μM", "description": "The cell cycle was analyzed by flow cytometry after 3 days of culture of NB4 cells in the absence or presence of sodium stibogluconate (250 µg/ml) or ATRA (1 μM). Briefly, the cells were fixed in cold ethanol and incubated for 30 minutes at 4° C. in the dark with a solution of 50 […], 1 mg/ml RNase and 0.1% NP-40. Analysis was performed immediately after staining using the CELLFIT program (Becton Dickinson, Mountain View, Calif.)."}, "[2]": {"test_system": "U937 cells", "test": "U937 differentiation, NBT reduction", "assay_type": "cell-based, human", "conditions": "day 6; sodium stibogluconate 400 μg/ml, GM-CSF 25 ng/ml", "description": "(§1) Differentiation of AML cell lines was assessed by their ability to produce superoxide as measured by reduction of NBT to formazan and by analysis of expression of CD11b surface marker by flow cytometry. For NBT reduction, each cell suspension was mixed with an equal volume of solution containing 1 mg/ml of NBT (Sigma) and 2.5 µg/ml of TPA for 30 minutes at 37° C. After incubation, cells containing the purple formazan deposits and cells devoid of NBT-reducing activity (white cells) in each sample were determined by counting 200 cells under microscope. Data is expressed as a percentage based on the following ratio: purple cells/purple+white cells. For analysis of cell surface antigens, cells were exposed to phycoerythrin (PE)-conjugated murine anti-human CD11b (DAKO Corp., Carpinteria, Calif.). Analysis of fluorescence was performed on a FACScan flow cytometer (Beckton Dickinson, Mountain View, Calif.)."}, "[3]": {"test_system": "HL-60 cells", "test": "HL-60 differentiation, NBT reduction", "assay_type": "cell-based, human", "conditions": "day 6; sodium stibogluconate 400 μg/ml, GM-CSF 25 ng/ml", "description": "as §1"}, "[4]": {"target": "T1, PRL-3 (Homo sapiens, UniProt O75365)", "T1 construct": "GST (N); made in house; host or cells: DHSa (DH5a) bacteria", "T1 sequence (O75365 whole entry)": "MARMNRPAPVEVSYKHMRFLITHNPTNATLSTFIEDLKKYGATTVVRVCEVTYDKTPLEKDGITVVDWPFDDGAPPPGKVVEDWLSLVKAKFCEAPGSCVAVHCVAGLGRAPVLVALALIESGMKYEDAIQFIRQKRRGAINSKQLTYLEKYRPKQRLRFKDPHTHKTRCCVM", "test": "In vitro PTPase assay, recombinant PRL-3, DiFMUP substrate", "assay_type": "biochemical", "conditions": "comparable conditions", "description": "(§2) In vitro PTPase assays were used to determine the effects of compounds on recombinant PTPases, following established procedures using a synthetic phosphotyrosine peptide or DiFMUP as the substrate (Pathak et al., J. Imumol. 167, 3391 (2001)). Briefly, individual PTPases (0.1 µg/reaction) in 50 μL of PTPase buffer (50 mM Tris, pH 7.4) were incubated at 22° C. for 10 minutes or as indicated in the absence or presence of inhibitory compounds. Substrates (0.2 mM phosphotyrosine peptide) were then added and allowed to react at 22° C. for 18 hrs. PTPase activity of individual reactions was measured by adding 100 µL of malachite green solution (UBI) and then quantifying the amounts of free phosphate cleaved by the PTPase from the peptide substrate by spectrometry (OD660 nm). PTPase assays using DiFMUP as a substrate were conducted following a previously described procedure (Matter, et al., Biochem. Biophys. Res. Comm. 283, 1061 (2001)). Relative PTPase activities were calculated based on the formula: (PTPase activity in the presence of an inhibitory compound/PTPase activity in the absence of the compound)× 100%. To assess the reversibility of PTPase inhibition, GST fusion proteins of the PTPases bound on glutathione beads (Pharmacia) were pre-incubated with cold Tris buffer (50 mM Tris, pH 7.0) or Tris buffer containing the inhibitor at 4° C. for 30 minutes. The beads were then washed three times in cold Tris buffer or not washed prior to subjecting to in vitro PTPase assays."}, "[5]": {"target": "T2, SHP-1 (Mus musculus, UniProt P29351)", "T2 construct": "made in house", "T2 sequence (P29351 whole entry)": "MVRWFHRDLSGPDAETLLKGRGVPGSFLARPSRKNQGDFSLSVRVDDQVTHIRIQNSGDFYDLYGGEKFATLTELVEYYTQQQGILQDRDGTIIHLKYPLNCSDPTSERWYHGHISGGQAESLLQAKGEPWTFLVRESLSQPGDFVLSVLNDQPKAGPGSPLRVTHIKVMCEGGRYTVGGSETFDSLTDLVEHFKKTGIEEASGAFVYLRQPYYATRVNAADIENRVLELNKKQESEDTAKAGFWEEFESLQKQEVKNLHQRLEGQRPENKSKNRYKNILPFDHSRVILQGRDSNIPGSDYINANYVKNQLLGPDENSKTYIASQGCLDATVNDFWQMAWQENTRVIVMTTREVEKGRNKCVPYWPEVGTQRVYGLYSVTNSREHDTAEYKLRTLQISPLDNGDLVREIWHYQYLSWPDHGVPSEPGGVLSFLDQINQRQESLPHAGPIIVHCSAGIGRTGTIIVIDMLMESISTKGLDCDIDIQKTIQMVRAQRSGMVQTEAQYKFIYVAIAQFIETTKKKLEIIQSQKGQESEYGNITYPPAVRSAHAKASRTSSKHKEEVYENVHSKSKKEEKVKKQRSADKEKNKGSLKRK", "test": "In vitro PTPase assay, recombinant GST/SHP-1", "assay_type": "biochemical", "description": "(§3) In vitro PTPase activities were measured using the commercial protein tyrosine phosphatase assay kit (Upstate Biotechnology, Inc. (“UBI”)) following established procedure known to one of skill in the art. This assay measures the in vitro dephosphorylation of a synthetic phosphotyrosine peptide of the sequence Arg-Arg-Leu-Ile-Glu-Asp-Ala-Gle-Tyr-Ala-Ala-Arg-Gly, wherein the tyrosine is phosphorylated (SEQ ID NO: 3). Briefly, 0.01 µg of GST/PTPase fusion proteins was incubated in 50 μL of Tris buffer (10 mM Tris, pH 7.4) containing different concentrations of inhibitors or chemicals (0-1,000 μg/ml) at 22° C. for 10 minutes, followed by addition of 0.2 mM of the phosphotyrosine peptide and incubation at 22° C. for 18 hours. 100 μL of Malachite Green solution was added and incubated for 5 minutes, and the absorbance at 660 nm was measured after 5 minutes.\nas §2\n(§4) In vitro PTPase assays were used to determine the effects of levamisole (Sigma), pentamidine (American Pharmaceutical Partners, Inc.), and ketoconazole (Sigma) on recombinant PTPases, following established procedures (Pathak et al., J. Imumol. 167, 3391 (2001); Pathak et al., Leukemia 16, 2285 (2002), Yi et al., J. Immunol. 169, 5978 (2002)) using a synthetic phosphotyrosine peptide or DiFMUP as the substrate as detailed above in section I.A.2."}, "[6]": {"target": "T3, MKP1 (Homo sapiens, UniProt P28562)", "T3 construct": "GST (N); made in house; host or cells: DH5a bacteria", "T3 sequence (P28562 1-367)": "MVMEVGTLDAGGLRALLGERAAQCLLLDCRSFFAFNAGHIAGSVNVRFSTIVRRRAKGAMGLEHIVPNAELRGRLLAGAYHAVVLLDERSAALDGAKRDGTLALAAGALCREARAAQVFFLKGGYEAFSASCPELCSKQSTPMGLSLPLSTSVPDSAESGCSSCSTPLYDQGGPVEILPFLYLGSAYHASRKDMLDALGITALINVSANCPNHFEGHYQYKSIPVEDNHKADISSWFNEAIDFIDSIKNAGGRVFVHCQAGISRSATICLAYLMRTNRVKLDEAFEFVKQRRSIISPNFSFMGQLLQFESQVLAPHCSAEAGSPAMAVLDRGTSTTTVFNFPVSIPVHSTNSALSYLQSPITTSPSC", "test": "In vitro PTPase assay, GST/MKP1", "assay_type": "biochemical", "description": "as §3, §4"}, "[7]": {"test_system": "GSTm8", "test": "In vitro PTPase assay, GSTm8", "assay_type": "biochemical", "conditions": "3-4 μg/ml or 10-100 μg/ml", "description": "as §4"}, "[8]": {"test_system": "Baf3 cells", "test": "Baf3 cell proliferation assay", "assay_type": "cell-based, murine", "description": "The murine hematopoietic cell line Baf3 was maintained in RPMI 1640 medium supplemented with 10% fetal calf serum (FCS) and murine IL-3 (20 units/ml) as described previously in Damen et al., J. Biol. Chem. 270, 23402 (1995). Human myeloid cell line TF-1 was maintained in RPMI 1640 supplemented with 10% FCS and 40 ng/ml of recombinant human GM-CSF as described previously in Thomassen et al., Clin. Immunol. 95, 85 (2000). For cell proliferation assays, cells were washed in 10% FCS medium twice, resuspended in 10% FCS medium, incubated at 37° C. for 16 hours, and then cultured at 37° C. in 10% FCS medium containing various amounts of cytokines, sodium stibogluconate, or potassium antimonyl tartrate for 3-6 days as indicated. The cell numbers in proliferation assays were determined by an MTT assay or by microscopic cell counting as indicated."}, "[9]": {"target": "T4, PTP1B (Homo sapiens, UniProt P18031)", "T4 construct": "GST; purchased Upstate Biotechnology Inc. (Lake Placid, N.Y.)", "T4 sequence (P18031 whole entry, species assumed)": "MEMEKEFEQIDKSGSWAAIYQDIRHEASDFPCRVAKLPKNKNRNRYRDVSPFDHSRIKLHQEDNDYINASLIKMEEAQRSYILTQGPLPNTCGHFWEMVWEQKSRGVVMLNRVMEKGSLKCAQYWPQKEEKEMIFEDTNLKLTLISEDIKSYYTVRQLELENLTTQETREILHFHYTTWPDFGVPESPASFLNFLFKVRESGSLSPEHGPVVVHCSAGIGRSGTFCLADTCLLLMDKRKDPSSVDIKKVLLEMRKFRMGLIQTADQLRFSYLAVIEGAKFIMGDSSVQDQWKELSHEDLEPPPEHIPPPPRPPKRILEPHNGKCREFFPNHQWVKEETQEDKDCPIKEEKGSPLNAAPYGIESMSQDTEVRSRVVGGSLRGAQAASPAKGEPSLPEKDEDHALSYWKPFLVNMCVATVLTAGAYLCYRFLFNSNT", "test": "In vitro PTPase assay, GST/PTP1B", "assay_type": "biochemical", "conditions": "1-1,000 μg/ml", "description": "as §3, §4"}, "[10]": {"test_system": "Jak2/Stat5 tyrosine phosphorylation", "test": "IL-3-induced Jak2/Stat5 tyrosine phosphorylation in Baf3 cells", "assay_type": "cell-based, murine", "conditions": "potassium antimonyl tartrate", "description": "For induction of cellular protein phosphorylation by sodium stibogluconate or pervanadate, Baf3 cells were incubated in 0.1% FCS-RPMI 1640 medium at 37° C. for 16 hours. The cells were then washed twice in RPMI 1640 medium and incubated with sodium stibogluconate or pervanandate (0.1 mM) for various times prior to termination by lysing cells in cold lysis buffer (50 mM Tris, pH 7.4; 150 mM NaCl; 0.2 mM Na3VO4; 20 mm NaF; 1% Nonidet P-40; 2 mM PMSF; 20 µg/ml of Aprotinin and 1 mM of sodium molybdic acid). To determine the effect of sodium stibogluconate or potassium antimonyl tartrate on IL-3-induced Jak/Stat phosphorylation, Baf3 cells were deprived of the growth factor for 16 hours in 0.1% FCS RPMI 1640 medium and then incubated with or without sodium stibogluconate or potassium antimonyl tartrate for 10 minutes. IL-3 was next added to the cell suspension and incubated for various times. The Cells were then harvested and lysed in cold lysis buffer at 4° C. for 45 minutes. Total cell lysates (TCL) were separated in SDS-PAGE gels, blotted onto nitrocellulose membrane (Schleicher & Schuell), probed with specific antibodies and detected using an enhanced chemiluminescence kit (ECL, Amersham, Arlington Heights, Ill.)."}, "[11]": {"test_system": "NB4 cells", "test": "NB4 differentiation, NBT reduction", "assay_type": "cell-based, human", "conditions": "comparable conditions", "description": "as §1"}, "[12]": {"target": "T2, SHP-1", "test": "Reversibility of SHP-1 inhibition (washing of bead-bound GST/SHP-1)", "assay_type": "biochemical", "conditions": "pre-incubated 4° C. 30 minutes, washed 3 times", "description": "The beads were then either subjected to in vitro PTPase assays or washed 3 times in Tris buffer then subjected to in vitro PTPase assays."}}, "note": "Where “and” joins values, the source holds several entries; their conditions need not be identical. Equal values may be shown once.", "data": [{"molecule": "CC1=C(/C=C/C(C)=C/C=C/C(C)=C/C(=O)O)C(C)(C)CCC1", "note": "[ATRA, All-trans-retinoic acid]", "values": [{"measurement": "NB4 cell cycle effect", "setting": "[1]", "result": "arrested at G1 phase"}, {"measurement": "NBT-positive (differentiated) U937 cells", "setting": "[2]", "result": "72% and 73%"}, {"measurement": "NBT-positive (differentiated) HL-60 cells", "setting": "[3]", "result": 90, "unit": "%"}]}, {"molecule": "[Na+].[Na+].[Na+].[O]=[V]([O-])([O-])[O-]", "note": "[sodium orthovanadate]", "values": [{"measurement": "inhibition of PRL-3 with DiFMUP substrate", "setting": "[4]", "result": "less effective than sodium stibogluconate"}]}, {"molecule": "c1ccc([C@H]2CN3CCSC3=N2)cc1", "note": "[levamisole]", "values": [{"measurement": "inhibitory activity against SHP-1", "setting": "[5]; 3-4 μg/ml or 10-100 μg/ml", "result": "no obvious inhibitory activity"}, {"measurement": "inhibition of MKP1", "setting": "[6]", "result": "substantial inhibition"}, {"measurement": "inhibitory activity against GSTm8", "setting": "[7]", "result": "no obvious inhibitory activity"}]}, {"molecule": "O.O.O.O=C([O-])[C@H]([O-])[C@@H]([O-])C(=O)[O-].O=C([O-])[C@H]([O-])[C@@H]([O-])C(=O)[O-].[K+].[K+].[Sb+3].[Sb+3]", "note": "[potassium antimonyl tartrate]", "values": [{"measurement": "toxicity against Baf3 cells", "setting": "[8]", "result": "marked toxicity against Baf3 cells"}, {"measurement": "IL-3-induced proliferation of Baf3 cells", "setting": "[8]; IL-3 10 units/ml, three days", "result": "failed to enhance"}, {"measurement": "inhibition of SHP-1", "setting": "[5]; 1-1,000 μg/ml", "result": "no detectable inhibition"}, {"measurement": "inhibition of PTP1B", "setting": "[9]", "result": "no detectable inhibition"}, {"measurement": "IL-3-induced Stat5 phosphorylation", "setting": "[10]", "result": "failed to enhance IL-3-induced Stat5 phosphorylation"}]}, {"molecule": "GM-CSF: recombinant human GM-CSF", "values": [{"measurement": "NBT-positive (differentiated) U937 cells", "setting": "[2]", "result": "8-10%"}, {"measurement": "NBT-positive (differentiated) HL-60 cells", "setting": "[3]", "result": "8-10%"}, {"measurement": "effect of GM-CSF on NB4 differentiation", "setting": "[11]", "result": "no detectable effect"}]}, {"molecule": "Cc1ccc(C(=O)Nc2ccc(S(=O)(=O)O)c3cc(S(=O)(=O)O)cc(S(=O)(=O)O)c23)cc1NC(=O)c1cccc(NC(=O)Nc2cccc(C(=O)Nc3cc(C(=O)Nc4ccc(S(=O)(=O)O)c5cc(S(=O)(=O)O)cc(S(=O)(=O)O)c45)ccc3C)c2)c1", "note": "[Suramin]", "values": [{"measurement": "inhibition of GST/SHP-1 after washing", "setting": "[12]", "result": "almost completely removed by the washing process"}, {"measurement": "inhibition of PRL-3 with DiFMUP substrate", "setting": "[4]", "result": "less effective than sodium stibogluconate"}, {"measurement": "inhibition of SHP-1 compared with sodium stibogluconate", "setting": "[5]; under comparable conditions", "result": "less effective"}]}]}
